What all share (type): functional
In assay [1] the test system is Mus musculus. The experiment in a line: Time of recovery of spontaneous movement (SMT) in seconds was measured after administration of 1 mg/kg orally in mice for the promotional effect on recovery from coma. Conditions: route oral.
In assay [2] the test system is Mus musculus. Put plainly: Time of recovery of spontaneous movement (SMT) in seconds was measured after administration of 0.3 mg/kg orally in mice for the promotional effect on recovery from coma. Conditions: route oral.
Assay [3] relates to Mus musculus. Put plainly: Time of recovery of righting reflux (RRT) in seconds was measured after administration of 0.3 mg/kg orally in mice for the promotional effect on recovery from coma. As to conditions: route oral.
Assay [4] concerns Mus musculus. Put plainly: Antihypoxic effect by the survival time (SVT) in mice at a dose of 3 mg/kg administered intraperitoneally. As to conditions: route intraperitoneal.
For assay [5], the system named is Mus musculus. The experiment in a line: Compound was tested for the anesthetic effect and the sleeping time (ST) was recorded at a dose of 10 mg/kg administered orally.
The test system of assay [6] is Mus musculus. The experiment in a line: Time of recovery of spontaneous movement (SMT) in seconds was measured after administration of 3 mg/kg orally in mice for the promotional effect on recovery from coma. Conditions: route oral.
Assay [7] relates to Mus musculus. The experiment in a line: Time of recovery of righting reflux (RRT) in seconds was measured after administration of 3 mg/kg orally in mice for the promotional effect on recovery from coma. Conditions: route oral.
Assay [8] deals with Mus musculus. Put plainly: Time of recovery of righting reflux (RRT) in seconds was measured after oral administration of 30 mg/kg in mice for the promotional effect on recovery from coma.
Assay [9] has as its system Mus musculus. Put plainly: Antihypoxic effect tested by the ratio of survival time (SVT) of test mice to that of control group, dosed intraperitoneally at 30 mg/kg. Conditions: route intraperitoneal.
Assay [10] has as its system Mus musculus. Put plainly: Time of recovery of righting reflux (RRT) in seconds was measured after administration of 1 mg/kg orally in mice for the promotional effect on recovery from coma. As to conditions: route oral.
In assay [11] the test system is Mus musculus. Put plainly: Antihypoxic effect tested by the ratio of survival time (SVT) of test mice to that of control group, dosed orally 30 mg/kg. Conditions: route oral.
Assay [12] has as its system Mus musculus. The experiment in a line: Spontaneous movement (SMT) in seconds, was measured after oral administration of 30 mg/kg in mice to test for promoting effects on recovery from coma.
Assay [13] deals with Mus musculus. The experiment in a line: Antihypoxic effect by the ratio of survival time (SVT) of test mice to that of control group at a dose of 10 mg/kg administered intraperitoneally. As to conditions: route intraperitoneal.
Assay [14] relates to Mus musculus. The experiment in a line: Compound was tested for the anesthetic effect and the sleeping time (ST) was recorded at a dose of 1 mg/kg administered orally.
Assay [15] relates to Mus musculus. Put plainly: Compound was tested for the anesthetic effect and the sleeping time (ST) was recorded at a dose of 3 mg/kg administered orally.
Assay [16] deals with Mus musculus. Put plainly: Antihypoxic effect by the ratio of survival time (SVT) of test mice to that of control group at a dose of 100 mg/kg administered intraperitoneally. Conditions: route intraperitoneal.
Assay [17] relates to Mus musculus. The experiment in a line: Antihypoxic effect by the survival time (SVT) in mice at a dose of 30 mg/kg administered orally.
Assay [18] has as its system Mus musculus. The experiment in a line: Antihypoxic effect by the survival time (SVT) in mice at a dose of 30 mg/kg administered intraperitoneally. Conditions: route intraperitoneal.
In assay [19] the test system is Mus musculus. The experiment in a line: Time of recovery of righting reflux (RRT) in seconds was measured after administration of 40 mg/kg orally in mice for the promotional effect on recovery from coma. As to conditions: route oral.
The subject of assay [20] is Mus musculus. Put plainly: Time of recovery of spontaneous movement (SMT) in seconds was measured after administration of 100 mg/kg intraperitoneally in mice for the promotional effect on recovery from coma. Conditions: route intraperitoneal.
The subject of assay [21] is Mus musculus. Put plainly: Time of recovery of righting reflux (RRT) in seconds was measured after administration of 30 mg/kg intraperitoneally in mice for the promotional effect on recovery from coma. Conditions: route intraperitoneal.
Assay [22] relates to Mus musculus. The experiment in a line: Antihypoxic effect by the ratio of survival time (SVT) of test mice to that of control group at a dose of 40 mg/kg administered intraperitoneally. As to conditions: route intraperitoneal.
In assay [23] the test system is Mus musculus. Put plainly: Time of recovery of righting reflux (RRT) in seconds was measured after administration of 10 mg/kg intraperitoneally in mice for the promotional effect on recovery from coma. Conditions: route intraperitoneal.
Assay [24] relates to Mus musculus. Put plainly: Compound was tested for the anesthetic effect and the sleeping time (ST) was recorded at a dose of 10 mg/kg administered intraperitoneally. Conditions: route intraperitoneal.
Assay [25] concerns Mus musculus. The experiment in a line: Time of recovery of spontaneous movement (SMT) in seconds was measured after administration of 10 mg/kg intraperitoneally in mice for the promotional effect on recovery from coma. Conditions: route intraperitoneal.
Assay [26] relates to Mus musculus. The experiment in a line: Time of recovery of righting reflux (RRT) in seconds was measured after administration of 100 mg/kg intraperitoneally in mice for the promotional effect on recovery from coma. Conditions: route intraperitoneal.
Assay [27] has as its system Mus musculus. Put plainly: Time of recovery of spontaneous movement (SMT) in seconds was measured after administration of 30 mg/kg intraperitoneally in mice for the promotional effect on recovery from coma. Conditions: route intraperitoneal.
The test system of assay [28] is Mus musculus. The experiment in a line: Antihypoxic effect by the ratio of survival time (SVT) of test mice to that of control group at a dose of 20 mg/kg administered intraperitoneally. Conditions: route intraperitoneal.
Assay [29] concerns Mus musculus. Put plainly: Time of recovery of spontaneous movement (SMT) in seconds was measured after administration of 40 mg/kg orally in mice for the promotional effect on recovery from coma. As to conditions: route oral.

The structures appear in SMILES notation. “And” between values parts separate entries of the source, which are not always exact repeats. Equal values may be shown once.

Consider `COc1cccc(N2CCN(CC(=O)NC3c4c(O)c(C)cc(C)c4CC3(C)C)CC2)c1` (centres undefined), for which the SMT with Mus musculus [1] was 56.2 s; with Mus musculus [2], 66.5 s; in the assay with Mus musculus [6] it was 45.3 s; in the assay with Mus musculus [12], 46 s. Also, the RRT in the assay with Mus musculus [3] worked out at 72.7 s; in the assay with Mus musculus [7], 43.6 s; in the assay with Mus musculus [8] it was 48.3 s; in the assay on Mus musculus [10], 58 s. In addition, the SVT with Mus musculus [4] is 153.5%; in the assay on Mus musculus [9] (30 mg/kg), 169.1% and 206.7%; in the assay with Mus musculus [11], 135.4%; in the assay with Mus musculus [13], 176.4%. For the same molecule, the ST was determined as 71.4 s in the assay on Mus musculus [5], 92.7 s in the assay with Mus musculus [14] and 84.8 s with Mus musculus [15].

For the molecule `Cc1cc(C)c2c(c1O)C(NC(=O)CN1CCN(c3cccc(Cl)c3)CC1)CC2` (centres undefined), the results for the SVT with Mus musculus [16] and in the assay on Mus musculus [17] were 168.9% and 99.2%, respectively. In the assay with Mus musculus [8], this molecule gave an RRT of 72.1 s. In the assay with Mus musculus [12], this molecule had an SMT of 77.4 s.

Molecule `CCC(C)c1cc(C)c2c(c1O)C(NC(=O)CN1CCN(c3cccc(Cl)c3Cl)CC1)CC2` (centres undefined) returned an RRT with Mus musculus [8] of 98 s. Besides, the SVT was 122.4% in the assay on Mus musculus [9] and 119.2% in the assay on Mus musculus [11]. The same molecule returned an SMT in the assay on Mus musculus [12] of 117.4 s.

In the assay on Mus musculus [18], `Cc1cc(C)c2c(c1O)C(NC(=O)CCl)CC2` (centres undefined) returned an SVT of 116.4%.

In the case of `CCCC(C)C1(CC)C(=O)N=C([O-])NC1=O.[Na+]` (centres undefined) [PENTOBARBITAL SODIUM], the RRT in the assay on Mus musculus [19] is 494 s; in the assay on Mus musculus [21], 494 s; in the assay with Mus musculus [23], 175.5 s; in the assay with Mus musculus [26], 494 s. Besides, the SMT in the assay on Mus musculus [20] was 283 s; with Mus musculus [25] it was 176.3 s; in the assay with Mus musculus [27], 283 s; in the assay on Mus musculus [29], 283 s. Further, the SVT is 306.7% and 443.6% in the assay with Mus musculus [22]; 134.9% in the assay on Mus musculus [13]; 218.5% in the assay on Mus musculus [28]. Also, the ST in the assay with Mus musculus [24] came to 133 s.

Take `CCC(C)c1cc(C)c2c(c1O)C(NC(=O)CN1CCN(c3cc(Cl)cc(Cl)c3)CC1)CC2` (centres undefined): the RRT with Mus musculus [8] is 114 s. Further, the results for the SVT with Mus musculus [9] and in the assay with Mus musculus [11] were 139.4% and 113.2%, respectively. For the same molecule, the SMT with Mus musculus [12] was determined as 100.6 s.

With `CCC(C)c1cc(C)c2c(c1O)C(NC(=O)CN1CCN(c3cccc(Cl)c3)CC1)CC2` (centres undefined), the RRT with Mus musculus [8] is given as 90.6 s. The SVT with Mus musculus [9] is reported as 224.8%; in the assay with Mus musculus [11] it was 144.5%. Also, the SMT in the assay with Mus musculus [12] amounted to 81.9 s.

For the origin of these results see ChEMBL document CHEMBL1125278, “Novel cerebroprotective agents with central nervous system stimulating activity. 2. Synthesis and pharmacology of the 1-(acylamino)-7-hydroxyindan derivatives” (1991).
